Kd and IC50 data for five compounds are collected here from publication PMC3509171 (Nature chemical biology, 2012).

The target in test [1] is T1, hOGT (312-1031) (Homo sapiens, UniProt O15294, H568F).
T1 sequence (O15294 322-1041 H568F): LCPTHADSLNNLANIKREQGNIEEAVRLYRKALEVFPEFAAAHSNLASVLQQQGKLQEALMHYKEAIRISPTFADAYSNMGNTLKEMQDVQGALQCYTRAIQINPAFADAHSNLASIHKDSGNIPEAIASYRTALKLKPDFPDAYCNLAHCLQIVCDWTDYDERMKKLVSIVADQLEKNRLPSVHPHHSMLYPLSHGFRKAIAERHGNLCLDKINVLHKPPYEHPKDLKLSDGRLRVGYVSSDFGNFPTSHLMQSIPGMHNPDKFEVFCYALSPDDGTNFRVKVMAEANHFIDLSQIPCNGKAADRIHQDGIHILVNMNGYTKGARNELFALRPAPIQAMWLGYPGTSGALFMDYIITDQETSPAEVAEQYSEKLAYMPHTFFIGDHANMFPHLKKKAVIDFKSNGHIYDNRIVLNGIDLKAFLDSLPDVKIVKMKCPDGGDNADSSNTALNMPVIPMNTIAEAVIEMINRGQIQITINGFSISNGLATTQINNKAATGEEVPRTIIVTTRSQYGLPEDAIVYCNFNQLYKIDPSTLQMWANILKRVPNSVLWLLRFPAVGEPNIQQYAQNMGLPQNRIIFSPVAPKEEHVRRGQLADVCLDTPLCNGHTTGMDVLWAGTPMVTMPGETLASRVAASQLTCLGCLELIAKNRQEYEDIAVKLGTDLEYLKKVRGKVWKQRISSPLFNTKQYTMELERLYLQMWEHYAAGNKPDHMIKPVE
Nature of the test: surface plasmon resonance, […] equilibrium fit. Format: binding.

For test [2], the target named is T2, hOGT (312-1031) (Homo sapiens, UniProt O15294, D564N).
T2 sequence (O15294 322-1041 D564N): T1 sequence (O15294 322-1041 H568F) with D243N, F247H
The test can be described thus: surface plasmon resonance, […] equilibrium fit. It is filed as binding. Background: In SPR one partner is held on a chip, and binding of the other changes the refractive index at the surface.

Test [3] addresses T3, hOGT (312-1031) (Homo sapiens, UniProt O15294, K852M).
T3 sequence (O15294 322-1041 K852M): T1 sequence (O15294 322-1041 H568F) with F247H, K531M
Nature of the test: surface plasmon resonance, […] equilibrium fit. Format: binding.

Test [4] concerns the target T4, hOGT (312-1031) (Homo sapiens, UniProt O15294).
T4 sequence (O15294 322-1041): T1 sequence (O15294 322-1041 H568F) with F247H
Nature of the test: surface plasmon resonance, […] equilibrium fit. Format: binding.

Test [5] has as its target T4, hOGT (312-1031). Nature of the test: in vitro O-GlcNAc transfer inhibition. Format: biochemical.

Each structure is given as a SMILES string. Positions count from the first letter of the chain named.

What is called Kd is a measure of binding affinity in units of concentration. Higher therefore signals lower affinity. Regarding `CC(=O)N[C@H]1[C@@H](OP(=O)(O)OP(=O)(O)OC[C@H]2O[C@@H](n3ccc(=O)[nH]c3=O)[C@H](O)[C@@H]2O)O[C@H](CO)[C@@H](O)[C@@H]1O` [UDP-GlcNAc], the Kd turned out to be 42.3 ± 0.4 µM on hOGT (312-1031) [1], 32.1 ± 0.3 µM at hOGT (312-1031) [2], 4.7 ± 0.1 µM at hOGT (312-1031) [3] and 16.1 ± 0.1 µM on hOGT (312-1031) [4].
What is called IC50 is the point on the concentration scale where inhibition reaches its midpoint. The low end stands for inhibition by little substance, the high end for a need for much substance. In turn, `CC(=O)N[C@H]1[C@@H](OP(=O)(O)O[P@](O)(=S)OC[C@H]2O[C@@H](n3ccc(=O)[nH]c3=O)[C@H](O)[C@@H]2O)O[C@H](CO)[C@@H](O)[C@@H]1O` [compound 4, RP-αS-UDP-GlcNAc] had an IC50 against hOGT (312-1031) [5] of 25 µM. The Kd was 2.8 ± 0.1 µM on hOGT (312-1031) [3] and 11.3 ± 0.1 µM at hOGT (312-1031) [4].
For `O=C(N[C@H]1[C@@H](OP(=O)(O)OP(=O)(O)OC[C@H]2O[C@@H](n3ccc(=O)[nH]c3=O)[C@H](O)[C@@H]2O)O[C@H](CO)[C@@H](O)[C@@H]1O)C(F)(F)F` [compound 2, UDP-GlcNAcF3], the Kd at hOGT (312-1031) [3] was 29.3 ± 0.1 µM; on hOGT (312-1031) [4], 12.1 ± 0.1 µM.
In turn, `CC(=O)N[C@@H]1[C@@H](O)[C@H](O)[C@@H](CO)S[C@@H]1OP(=O)(O)OP(=O)(O)OC[C@H]1O[C@@H](n2ccc(=O)[nH]c2=O)[C@H](O)[C@@H]1O` [compound 1, UDP-5S-GlcNAc] displayed a Kd on hOGT (312-1031) [3] of 5.7 ± 0.1 µM.
Take `O=c1ccn([C@@H]2O[C@H](COP(=O)(O)OP(=O)(O)O)[C@@H](O)[C@H]2O)c(=O)[nH]1` [UDP]: the Kd worked out at 0.7 ± 0.1 µM on hOGT (312-1031) [1] and 0.6 ± 0.03 µM on hOGT (312-1031) [2].
